In the assay the test system is Staphylococcus aureus. The assay is described as follows: Tested for antibacterial activity against Staphylococcus aureus by disc-diffusion antibacterial assay; Inactive. In kind it is functional, organism-based.

Calls of active or inactive are those of the source. The rule behind the calls is not given here.

Regarding `C[C@@H](O)[C@H]1C(=O)N2[C@@H](C(=O)O)C(SCCN)=C[C@H]12`, the inhibition result is “inactive”.

The record behind these values is ChEMBL document CHEMBL1121842, “Preparation and antibacterial activity of delta 1-thienamycin” (1981).
